From patent US20180208605A1, “Substituted Aza Compounds as IRAK-4 Inhibitors” (AURIGENE DISCOVERY TECHNOLOGIES LIMITED, priority 2015, published 2018)
Where a name gives a salt, the structure may show the parent alone.

Target: T1, recombinant IRAK-4 kinase (Homo sapiens, UniProt Q9NWZ3)
T1 construct: purchased Millipore, USA
T1 sequence (Q9NWZ3 1-460): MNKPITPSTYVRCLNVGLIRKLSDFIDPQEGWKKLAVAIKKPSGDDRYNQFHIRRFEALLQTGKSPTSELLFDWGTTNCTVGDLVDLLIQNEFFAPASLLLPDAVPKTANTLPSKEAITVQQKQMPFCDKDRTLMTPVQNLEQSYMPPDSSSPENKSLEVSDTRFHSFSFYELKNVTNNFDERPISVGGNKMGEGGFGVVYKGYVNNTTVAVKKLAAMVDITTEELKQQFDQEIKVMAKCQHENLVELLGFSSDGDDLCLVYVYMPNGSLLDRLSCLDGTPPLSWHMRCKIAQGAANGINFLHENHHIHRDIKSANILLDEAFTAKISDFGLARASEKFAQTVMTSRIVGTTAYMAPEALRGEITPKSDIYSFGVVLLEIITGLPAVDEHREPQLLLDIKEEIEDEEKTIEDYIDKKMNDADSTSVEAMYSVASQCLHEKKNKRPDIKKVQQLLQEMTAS
Assay: IRAK-4 Biochemical Assay (TR-FRET, percent inhibition)
Settings: TR-FRET, 20 μM ATP, 100 nM Biotin Histone H3; for inhibition at 0.1 µM: read-out: % inhibition of IRAK-4 @0.1 μM, compound at 0.1 μM; for inhibition at 1 µM: read-out: % inhibition of IRAK-4 @ 1 μM, compound at 1 μM
In short: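 IRAK-4 pre-incubated with compound 30 min at room temperature in Tris-HCl pH 7.5 buffer with MgCl2, MnCl2 and DTT, then reacted 30 min with 100 nM biotin-histone H3 and 20 μM ATP. EDTA stop with Eu-anti-phospho-H3 (Ser10) and APC-streptavidin. Percent inhibition derived from the 665/615 nm emission ratio at 340 nm excitation.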

Cc1cc(-c2nc(C(=O)Nc3cc4oc(N5CCOCC5)nc4nc3N3CC[C@@H](OCC4CC4)C3)co2)ccn1 [Example 95, (R)-N-(5-(3-(cyclopropylmethoxy)pyrrolidin-1-yl)-2-morpholinooxazolo[4,5-b]pyridin-6-yl)-2-(2-methylpyridin-4-yl)oxazole-4-carboxamide]
inhibition at 0.1 µM: 80%
inhibition at 1 µM: 97%

O=C(Nc1cc2sc(N3CCOCC3)nc2nc1N1CCCCC1)c1ccnc(N2CCC(O)C2)n1 (centres unmarked) [Example 53, 2-(3-hydroxypyrrolidin-1-yl)-N-(2-morpholino-5-(piperidin-1-yl)thiazolo[4,5-b]pyridin-6-yl)pyrimidine-4-carboxamide]
inhibition at 0.1 µM: 90%
inhibition at 1 µM: 97%

COC(=O)C1CN(c2cccc(C(=O)Nc3cc4sc(N5CCOCC5)nc4nc3N3CCCCC3)n2)C(=O)N1 (centres unmarked) [Example 48, methyl 1-(6-((2-morpholino-5-(piperidin-1-yl)thiazolo[4,5-b]pyridin-6-yl)carbamoyl)pyridin-2-yl)-2-oxoimidazolidine-4-carboxylate]
inhibition at 0.1 µM: 96%
inhibition at 1 µM: 100%

NC1CCN(c2ccn3ncc(C(=O)Nc4cc5sc(N6CCOCC6)nc5nc4C4CC4)c3n2)C1 (centres unmarked) [Example 23, 5-(3-aminopyrrolidin-1-yl)-N-(5-cyclopropyl-2-morpholinothiazolo[4,5-b]pyridin-6-yl)pyrazolo[1,5-a]pyrimidine-3-carboxamide hydrochloride]
inhibition at 0.1 µM: 86%
inhibition at 1 µM: 97%

O=C(Nc1cc2sc(N3CCOCC3)nc2nc1N1CCCCC1)c1cccc(N2CCC(CCO)CC2)n1 [Example 35, 6-(4-(2-hydroxyethyl)piperidin-1-yl)-N-(2-morpholino-5-(piperidin-1-yl)thiazolo[4,5-b]pyridin-6-yl)picolinamide]
inhibition at 0.1 µM: 92%
inhibition at 1 µM: 95%

O=C(Nc1cc2sc(N3CCOCC3)nc2nc1N1CCCCC1)c1cccc(N2CCC[C@@H](O)C2)n1 [Example 30, (R)-6-(3-hydroxypiperidin-1-yl)-N-(2-morpholino-5-(piperidin-1-yl)thiazolo[4,5-b]pyridin-6-yl)picolinamide]
inhibition at 0.1 µM: 98%
inhibition at 1 µM: 99%

O=C(Nc1cc2sc(N3CCOCC3)nc2nc1N1CCCCC1)c1cncc(N2CC[C@H](O)C2)n1 [Example 63, (S)-6-(3-hydroxypyrrolidin-1-yl)-N-(2-morpholino-5-(piperidin-1-yl)thiazolo[4,5-b]pyridin-6-yl)pyrazine-2-carboxamide]
inhibition at 0.1 µM: 95%
inhibition at 1 µM: 95%

Cc1cc(-c2nc(C(=O)Nc3cc4oc(N5CCOCC5)nc4nc3OC3CCC(N4CCOCC4)CC3)co2)ccn1 (centres unmarked) [Example 16, 2-(2-methylpyridin-4-yl)-N-(2-morpholino-5-(((1r,4r)-4-morpholinocyclohexyl)oxy)oxazolo[4,5-b]pyridin-6-yl)oxazole-4-carboxamide hydrochloride]
inhibition at 0.1 µM: 94%
inhibition at 1 µM: 99%

N[C@H]1CCN(c2cccc(C(=O)Nc3cc4sc(N5CCOCC5)nc4nc3N3CCCCC3)n2)C1 [Example 26, (S)-6-(3-aminopyrrolidin-1-yl)-N-(2-morpholino-5-(piperidin-1-yl)thiazolo[4,5-b]pyridin-6-yl)picolinamide]
inhibition at 0.1 µM: 87%
inhibition at 1 µM: 92%

NCC(=O)N[C@H]1CCN(c2cccc(C(=O)Nc3cc4sc(N5CCOCC5)nc4nc3N3CCCCC3)n2)C1 [Example 27, (S)-6-(3-(2-aminoacetamido)pyrrolidin-1-yl)-N-(2-morpholino-5-(piperidin-1-yl)thiazolo[4,5-b]pyridin-6-yl)picolinamide]
inhibition at 0.1 µM: 95%
inhibition at 1 µM: 97%

O=C(Nc1cc2sc(N3CCOCC3)nc2nc1N1CCC[C@@H](O)C1)c1cccc(N2CCC(O)CC2)n1 [Example 38, (R)-6-(4-hydroxypiperidin-1-yl)-N-(5-(3-hydroxypiperidin-1-yl)-2-morpholinothiazolo[4,5-b]pyridin-6-yl)picolinamide]
inhibition at 0.1 µM: 98%
inhibition at 1 µM: 99%

Nc1cccc(-c2nc(C(=O)Nc3cc4oc(N5CCOCC5)nc4nc3N3CC[C@@H](O)C3)co2)n1 [Example 87, (R)-2-(6-aminopyridin-2-yl)-N-(5-(3-hydroxypyrrolidin-1-yl)-2-morpholinooxazolo[4,5-b]pyridin-6-yl)oxazole-4-carboxamide hydrochloride]
inhibition at 0.1 µM: 21%
inhibition at 1 µM: 57%

O=C(Nc1cc2sc(N3CCOCC3)nc2nc1N1CCCCC1)c1cncc(N2CC[C@@H](O)C2)n1 [Example 62, (R)-6-(3-hydroxypyrrolidin-1-yl)-N-(2-morpholino-5-(piperidin-1-yl)thiazolo[4,5-b]pyridin-6-yl)pyrazine-2-carboxamide]
inhibition at 0.1 µM: 93%
inhibition at 1 µM: 95%

O=C(Nc1cc2sc(N3CCOCC3)nc2nc1N1CCCCC1)c1cccc(N2C3CCC2CC(O)C3)n1 (centres unmarked) [Example 81, 6-(3-hydroxy-8-azabicyclo[3.2.1]octan-8-yl)-N-(2-morpholino-5-(piperidin-1-yl)thiazolo[4,5-b]pyridin-6-yl)picolinamide]
inhibition at 0.1 µM: 88%
inhibition at 1 µM: 94%

NCC(=O)OC1CCN(c2cccc(C(=O)Nc3cc4sc(N5CCOCC5)nc4nc3N3CCCCC3)n2)CC1 [Example 66, 1-(6-((2-morpholino-5-(piperidin-1-yl)thiazolo[4,5-b]pyridin-6-yl)carbamoyl)pyridin-2-yl)piperidin-4-yl glycinate]
inhibition at 0.1 µM: 90%
inhibition at 1 µM: 95%

O=C1CN(c2cccc(C(=O)Nc3cc4sc(N5CCOCC5)nc4nc3N3CCCCC3)n2)CCN1 [Example 61, N-(2-morpholino-5-(piperidin-1-yl)thiazolo[4,5-b]pyridin-6-yl)-6-(3-oxopiperazin-1-yl)picolinamide]
inhibition at 0.1 µM: 84%
inhibition at 1 µM: 91%

O=C(Nc1cc2sc(N3CCOCC3)nc2nc1N1CCCCC1)c1cncc(N2CCC(O)C2)n1 (centres unmarked) [Example 54, 6-(3-hydroxypyrrolidin-1-yl)-N-(2-morpholino-5-(piperidin-1-yl)thiazolo[4,5-b]pyridin-6-yl)pyrazine-2-carboxamide hydrochloride]
inhibition at 0.1 µM: 93%
inhibition at 1 µM: 97%

NC(=O)C1CCN(c2cccc(C(=O)Nc3cc4sc(N5CCOCC5)nc4nc3N3CCCCC3)n2)CC1 [Example 82, 6-(4-carbamoylpiperidin-1-yl)-N-(2-morpholino-5-(piperidin-1-yl)thiazolo[4,5-b]pyridin-6-yl)picolinamide]
inhibition at 0.1 µM: 93%
inhibition at 1 µM: 98%

O=C(Nc1cc2sc(N3CCOCC3)nc2nc1N1CCCCC1)c1cnn2cccnc12 [Example 104, N-(2-morpholino-5-(piperidin-1-yl)thiazolo[4,5-b]pyridin-6-yl)pyrazolo[1,5-a]pyrimidine-3-carboxamide hydrochloride]
inhibition at 0.1 µM: 95%
inhibition at 1 µM: 97%

Cc1cc(-c2nc(C(=O)Nc3cc4oc(N5CCOCC5)nc4nc3N3CCCC(O)(CO)C3)co2)ccn1 (centres unmarked) [Example 15, N-(5-(3-hydroxy-3-(hydroxymethyl)piperidin-1-yl)-2-morpholinooxazolo[4,5-b]pyridin-6-yl)-2-(2-methylpyridin-4-yl)oxazole-4-carboxamide hydrochloride]
inhibition at 0.1 µM: 96%
inhibition at 1 µM: 100%

Cc1ccc(C(=O)Nc2cc3sc(N4CCOCC4)nc3nc2N2CCCCC2)nc1-c1ccc(N)nc1 [Example 85, 6′-amino-3-methyl-N-(2-morpholino-5-(piperidin-1-yl)thiazolo[4,5-b]pyridin-6-yl)-[2,3′-bipyridine]-6-carboxamide]
inhibition at 0.1 µM: 101%
inhibition at 1 µM: 100%

NC1CCN(c2ccn3ncc(C(=O)Nc4cc5sc(N6CCOCC6)nc5nc4C4CC4)c3n2)CC1 [Example 99, 5-(4-aminopiperidin-1-yl)-N-(5-cyclopropyl-2-morpholinothiazolo[4,5-b]pyridin-6-yl)pyrazolo[1,5-a]pyrimidine-3-carboxamide 2,2,2-trifluoroacetate]
inhibition at 0.1 µM: 89%
inhibition at 1 µM: 96%

O=C(Nc1cc2sc(N3CCOCC3)nc2nc1N1CCCCC1)c1cnn2cccnc12 [Example 19, N-(2-morpholino-5-(piperidin-1-yl)thiazolo[4,5-b]pyridin-6-yl)pyrazolo[1,5-a]pyrimidine-3-carboxamide]
% inhibition of IRAK-4 @0.1 μM (compound at 0.1 μM): 98%
% inhibition of IRAK-4 @ 1 μM (compound at 1 μM): 99%

Cc1cc(-c2nc(C(=O)Nc3cc4sc(N5CCN(C(=O)CO)CC5)nc4nc3N3CCCCC3)co2)ccn1 [Example 10, N-(2-(4-(2-hydroxyacetyl)piperazin-1-yl)-5-(piperidin-1-yl)thiazolo[4,5-b]pyridin-6-yl)-2-(2-methylpyridin-4-yl)oxazole-4-carboxamide hydrochloride]
inhibition at 0.1 µM: 100%
inhibition at 1 µM: 100%

O=C(Nc1cc2oc(N3CCOCC3)nc2nc1C1CC1)c1cnn2cccnc12 [Example 107, N-(5-cyclopropyl-2-morpholinooxazolo[4,5-b]pyridin-6-yl)pyrazolo[1,5-a]pyrimidine-3-carboxamide hydrochloride]
inhibition at 0.1 µM: 57%
inhibition at 1 µM: 92%
